pIC50: −log10 of the molar value. ≈ marks a conversion by molar mass, not a printed value.
Experiments:
[1] = molecular target: T1, human phosphodiesterase 5 (PDE 5) (Homo sapiens, UniProt O76074); test: Inhibition of human phosphodiesterase 5 (PDE 5); format: biochemical; conditions: PDE 5 preparation from human platelets; in some cases means of individual determinations
T1 construct: PDE 5 preparations are obtained from human platelets by disruption; from tissue; host or cells: human platelets
Experimental: B-3. Inhibition of human phosphodiesterase 5 (PDE 5)
PDE 5 preparations are obtained from human platelets by disruption (Microfluidizer®, 800 bar, 3 passes), followed by centrifugation (75 000 g, 60 min, 4° C.) and ion exchange chromatography of the supernatant on a Mono Q 10/10 column (linear sodium chloride gradient, elution with a 0.2-0.3M solution of sodium chloride in buffer (20 mM Hepes pH 7.2, 2 mM magnesium chloride). Fractions having PDE 5 activity are combined (PDE 5 preparation) and stored at −80° C.
To determine their in vitro action on human PDE 5, the test substances are dissolved in 100% DMSO and serially diluted. Typically, dilution series (1:3) from 200 μM to 0.091 μM are prepared (resulting final concentrations in the test: 4 μM to 0.0018 μM). In each case 2 μl of the diluted substance solutions are placed into the wells of microtitre plates (Isoplate-96/200W; Perkin Elmer). Subsequently, 50 μl of a dilution of the above-described PDE 5 preparation are added. The dilution of the PDE 5 preparation is chosen such that during the later incubation less than 70% of the substrate are converted (typical dilution: 1:100; dilution buffer: 50 mM tris/hydrochloric acid pH 7.5, 8.3 mM magnesium chloride, 1.7 mM EDTA, 0.2% BSA). The substrate, [8-^3H] cyclic guanosine-3′,5′-monophosphate (1 μCi/μl; Perkin Elmer), is diluted 1:2000 with assay buffer (50 mM tris/hydrochloric acid pH 7.5, 8.3 mM magnesium chloride, 1.7 mM EDTA) to a concentration of 0.0005 μμCi/μl. By addition of 50 μl (0.025 μCi) of the diluted substrate, the enzyme reaction is finally started. The test mixtures are incubated at room temperature for 60 min and the reaction is stopped by adding 25 μl of a suspension of 18 mg/ml yttrium scintillation proximity beads in water (phosphodiesterase beads for SPA assays, RPNQ 0150, Perkin Elmer). The microtitre plates are sealed with a film and left to stand at room temperature for 60 min. Subsequently, the plates are analysed for 30 s per well in a Microbeta scintillation counter (Perkin Elmer). IC50 values are determined using the graphic plot of the substance concentration against percentage PDE 5 inhibition.

[2] = Solubility of substances in buffer pH 6.5; format: physicochemical; conditions: aqueous buffer, kinetic from dmso stock, PBS buffer pH 6.5, room temperature
Experimental: B-10. Determination of the Solubility of Substances in Buffer pH 6.5
40 μl of DMSO are added to 2 mg of a test substance [50 g/l]. 10 μl of this solution are removed and introduced into 990 μl of PBS buffer pH 6.5 (c=500 μg/ml). This solution/suspension is shaken at room temperature for 24 h. After 30 min of ultracentrifugation at 114 000 g, the supernatant is removed, diluted with ACN/water 8:2 and analyzed by LC-MSMS.
For calibration, likewise 10 pi are removed from the DMSO stock solution and introduced into 823 μl of DMSO (c=600 μg/ml). Quantification takes place using a five-point calibration curve.

[3] = system: recombinant guanylate cyclase reporter cell line; test: Effect on a recombinant guanylate cyclase reporter cell line; format: cell-based; conditions: minimum effective concentration; in some cases means of individual determinations; read-out: MEC
Experimental: B-2. Effect on a Recombinant Guanylate Cyclase Reporter Cell Line
The cellular activity of the compounds of the invention is determined using a recombinant guanylate cyclase reporter cell line, as described in F. Wunder et al., Anal. Biochem. 339, 104-112 (2005). Representative values (MEC=minimum effective concentration) for the compounds of the invention are shown in the table below (Table 1; in some cases as means of individual determinations): […]

SMILES	pIC50 [1]	solubility at 24 h [2]	minimal effective concentration [3]
Cc1nc2c(cc1F)c(-c1nc(NCC(N)(CF)CF)c3c(n1)NC(=O)C3(C)C)nn2Cc1ccccc1F [Example 2, 4-{[2-Amino-3-fluoro-2-(fluoromethyl)propyl]amino}-2-[5-fluoro-1-(2-fluorobenzyl)-6-methyl-1H-pyrazolo[3,4-b]pyridin-3-yl]-5,5-dimethyl-5,7-dihydro-6H-pyrrolo[2,3-d]pyrimidin-6-one]	6.80	5.1 µg/mL (≈ 9.4 µM)	0.1 µM
Cc1nc2c(cc1F)c(-c1nc(NCC(N)(CF)CF)c3c(n1)NC(=O)C3(C)C)nn2Cc1cccc(F)c1F [Example 1, 4-{[2-Amino-3-fluoro-2-(fluoromethyl)propyl]amino}-2[1-(2,3-difluorobenzyl)-5-fluoro-6-methyl-1H-pyrazolo[3,4-b]pyridin-3-yl]-5,5-dimethyl-5,7-dihydro-6H-pyrrolo[2,3-d]pyrimidin-6-one]	7.28	7.6 µg/mL (≈ 13.6 µM)	0.3 µM
Cc1nc2c(cc1F)c(-c1nc(NCC(N)(CF)CF)c3c(n1)NC(=O)C3(C)C)nn2Cc1c(F)ccc(F)c1F [Example 3, 4-{[2-Amino-3-fluoro-2-(fluoromethyl)propyl]amino}-2-[5-fluoro-6-methyl-1-(2,3,6-trifluorobenzyl)-1H-pyrazolo[3,4-b]pyridin-3-yl]-5,5-dimethyl-5,7-dihydro-6H-pyrrolo[2,3-d]pyrimidin-6-one]	6.71		0.03 µM

The next lines start with results.

pIC50 [1]	solubility at 24 h [2]	SMILES	minimal effective concentration [3]
7.15	278 µg/mL (≈ 526 µM)	CC1(C)C(=O)Nc2nc(-c3nn(Cc4ncccc4F)c4ncc(F)cc34)nc(NCC(N)(CF)CF)c21 [Example 5, 4-{[2-Amino-3-fluoro-2-(fluoromethyl)propyl]amino}-2-{5-fluoro-1-[(3-fluoropyridin-2-yl)methyl]-1H-pyrazolo[3,4-b]pyridin-3-yl}-5,5-dimethyl-5,7-dihydro-6H-pyrrolo[2,3-d]pyrimidin-6-one]	1 µM
6.74	260 µg/mL (≈ 479 µM)	Cc1nc2c(cc1F)c(-c1nc(NCC(N)(CF)CF)c3c(n1)NC(=O)C3(C)C)nn2Cc1ncccc1F [Example 4, 4-{[2-Amino-3-fluoro-2-(fluoromethyl)propyl]amino}-2-{5-fluoro-1-[(3-fluoropyridin-2-yl)methyl]-6-methyl-1H-pyrazolo[3,4-b]pyridin-3-yl}-5,5-dimethyl-5,7-dihydro-6H-pyrrolo[2,3-d]pyrimidin-6-one]	1 µM

Reference: US20170240566A1, “AMINO-SUBSTITUTED ANNULATED PYRIMIDINES AND USE THEREOF” (Bayer Pharma Aktiengesellschaft, priority 2014, published 2017)
